Experimental data published in PubChem BioAssay (NCI).
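All cell lines were grown in 96-well plates and treated with compound for 48 hours. GI50 marks 50% less growth. TGI denotes the concentration required for complete inhibition of growth.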

Experiments:
Assay in all cases: NCI tumour cell line growth inhibition, 48 h
[1] = tested on: 786-0 renal
[2] = tested on: A549 NSCLC
[3] = tested on: ACHN renal
[4] = tested on: CAKI-1 renal
[5] = tested on: CCRF-CEM leukemia
[6] = tested on: COLO 205 colon
[7] = tested on: DLD-1 colon
[8] = tested on: DMS 114 small cell lung
[9] = tested on: DMS 273 small cell lung
[10] = tested on: EKVX NSCLC
[11] = tested on: HCC-2998 colon
[12] = tested on: HCT-116 colon
[13] = tested on: HL-60(TB) leukemia
[14] = tested on: HOP-18 NSCLC
[15] = tested on: HOP-62 NSCLC
[16] = tested on: HOP-92 NSCLC
[17] = tested on: HT29 colon
[18] = tested on: IGROV1 ovarian
[19] = tested on: K-562 leukemia
[20] = tested on: KM12 colon
[21] = tested on: KM20L2 colon
[22] = tested on: LOX IMVI melanoma
[23] = tested on: LXFL 529 NSCLC
[24] = tested on: M14 melanoma
[25] = tested on: M19-MEL melanoma
[26] = tested on: MALME-3M melanoma
[27] = tested on: MOLT-4 leukemia

## CC[O-].CC[O-].[O-]c1ccccc1C=NC12CC3CC(CC(C3)C1)C2.[O-]c1ccccc1C=NC12CC3CC(CC(C3)C1)C2.[Ti+4]
[1]
  GI50: > 100 µM
  TGI: > 100 µM
[2]
  GI50: > 100 µM
  TGI: > 100 µM
[3]
  GI50: > 100 µM
  TGI: > 100 µM
[4]
  GI50: > 100 µM
  TGI: > 100 µM
[5]
  GI50: 11 µM
  TGI: > 100 µM
[6]
  GI50: 67.3 µM
  TGI: > 100 µM
[7]
  GI50: 11.1 µM
  TGI: > 100 µM
[8]
  GI50: 23.4 µM
  TGI: > 100 µM
[9]
  GI50: > 100 µM
  TGI: > 100 µM
[10]
  GI50: > 100 µM
  TGI: > 100 µM
[11]
  GI50: > 100 µM
  TGI: > 100 µM
[12]
  GI50: 39.6 µM
  TGI: > 100 µM
[13]
  GI50: 52.4 µM
  TGI: > 100 µM
[14]
  GI50: 85.5 µM
  TGI: > 100 µM
[15]
  GI50: > 100 µM
  TGI: > 100 µM
[16]
  GI50: 34.4 µM
  TGI: > 100 µM
[17]
  GI50: > 100 µM
  TGI: > 100 µM
[18]
  GI50: > 100 µM
  TGI: > 100 µM
[19]
  GI50: 31.4 µM
  TGI: > 100 µM
[20]
  GI50: > 100 µM
  TGI: > 100 µM
[21]
  GI50: 45.6 µM
  TGI: > 100 µM
[22]
  GI50: 57.8 µM
  TGI: > 100 µM
[23]
  GI50: 23.5 µM
  TGI: > 100 µM
[24]
  GI50: > 100 µM
  TGI: > 100 µM
[25]
  GI50: > 100 µM
  TGI: > 100 µM
[26]
  GI50: 64.2 µM
  TGI: > 100 µM
[27]
  GI50: > 100 µM
  TGI: > 100 µM
